Assays:
[1] = tested on: Long-Evans rats, cognitive impairment induced by scopolamine; experiment: Novel object recognition (NOR) test in rats; assay type: in vivo, rat; conditions: oral; scopolamine hydrobromide 0.3 mg/kg i.p.; statistically significant difference in discrimination index vs scopolamine alone group
Protocol: Six-week old male Long-Evans rats were used for this test. For 2 days before starting the test, the rats were acclimated to experimental operations such as administration and a test device (that is, a black or gray plastic cage with a width of 40 cm, a depth of 30 cm and a height of 45 cm). Each test compound was dissolved in a 0.1 N hydrochloric acid to be orally administered. Thirty minutes after the administration, scopolamine hydrobromide was intraperitoneally administered at a 0.3 mg/kg dose, so as to induce cognitive impairment. After another 30 minutes, each rat was acclimated in the test device for 3 minutes, and thereafter, two blocks in the same shape were put in the test device as acquisition trial, and exploring time for each block was measured for 5 minutes. Two hours after the acquisition trial, the rat was acclimated in the test device for 3 minutes, and thereafter, the same block as those used in the acquisition trial and a new block in a different shape were put in the cage for retention trial. The exploring time for each block was measured for 3 minutes, and a ratio of the exploring time for the newly used block to the sum of the exploring times for the respective blocks was calculated as a discrimination index. The thus obtained discrimination indexes were compared among a group of rats to which a medium alone was administered (medium group), a group of rats to which scopolamine alone was administered (scopolamine alone group) and a group of rats to which both the test compound and scopolamine were administered, so as to evaluate the action of the test compound on the novel object recognition function (cognitive function) of the rats.
Each discrimination index was shown as an average and a standard error. The statistical significance between the medium group and the scopolamine alone group was analyzed by the independent t-test. The statistical significance between the scopolamine alone group and each sample group was analyzed by one-way analysis of variance and then by Dunnett's multiple comparison test. The significance level was set to 5% on both sides. […] The analysis was carried out by using Prism 5 for Windows for Japanese, ver. 5.03. A minimum effective dose at which a statistically significant difference was found between a group suffering from the cognitive impairment induced by scopolamine and a group treated with each compound is shown in Table 4.

[2] = molecular target: T1, human metabotropic glutamate receptor 2 (mGluR2) (Homo sapiens, UniProt Q14416); experiment: [35S]GTPγS binding assay (Affinity to mGluR2); assay type: biochemical; conditions: cell membrane fraction of HEK293 cells stably expressing human mGluR2; glutamic acid 10 μM
T1 construct: expressed in transfected cells; co-expressing human SLC1A3), cell membrane fraction
T1 sequence (Q14416 19-872): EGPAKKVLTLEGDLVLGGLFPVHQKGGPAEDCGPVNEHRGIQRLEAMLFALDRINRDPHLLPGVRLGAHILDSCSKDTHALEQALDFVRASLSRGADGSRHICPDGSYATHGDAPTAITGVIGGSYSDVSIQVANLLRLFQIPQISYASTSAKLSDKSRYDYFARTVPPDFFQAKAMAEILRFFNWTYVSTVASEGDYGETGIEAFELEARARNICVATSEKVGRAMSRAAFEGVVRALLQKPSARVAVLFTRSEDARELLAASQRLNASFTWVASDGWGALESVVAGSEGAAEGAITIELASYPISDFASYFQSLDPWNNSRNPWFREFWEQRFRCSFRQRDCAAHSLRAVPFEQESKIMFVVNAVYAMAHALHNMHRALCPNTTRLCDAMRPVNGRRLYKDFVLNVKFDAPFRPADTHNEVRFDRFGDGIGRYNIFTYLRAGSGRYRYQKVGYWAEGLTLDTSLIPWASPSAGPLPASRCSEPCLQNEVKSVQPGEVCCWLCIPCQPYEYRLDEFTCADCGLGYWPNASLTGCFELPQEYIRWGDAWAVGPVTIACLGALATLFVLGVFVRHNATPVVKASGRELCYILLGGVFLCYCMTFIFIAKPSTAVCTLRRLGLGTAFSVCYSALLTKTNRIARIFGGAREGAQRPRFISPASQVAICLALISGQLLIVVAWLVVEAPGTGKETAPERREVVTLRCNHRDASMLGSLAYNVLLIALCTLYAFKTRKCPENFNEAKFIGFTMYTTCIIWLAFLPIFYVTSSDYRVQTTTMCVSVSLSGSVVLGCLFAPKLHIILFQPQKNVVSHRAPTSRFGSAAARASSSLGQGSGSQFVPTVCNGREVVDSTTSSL
Protocol: (Preparation of Cell Membrane Fraction of HEK293 Cells Stably Expressing Human Metabotropic Glutamate Receptor 2 (mGluR2))
HEK293 cells stably expressing human mGluR2 and human glutamate transporter SLC1A3 were cultured in a Dulbecco's modified Eagle's medium with 10% fetal bovine serum (50 units/mL of penicillin, 50 μg/mL of streptomycin, 60 μg/mL of geneticin, 400 μg/mL of hygromycin B and 2 mM of glutamine) at 37° C. under 5% CO2. Confluent cell cultures were washed twice with PBS(−), and then scraped off with a cell scraper, and subjected to centrifugal separation at 4° C. and 1500 rpm for 5 minutes for collecting cells. The centrifuged sediment (cell pellet) was homogenized in a 20 mM HEPES buffer containing 10 mM EDTA (pH 7.4) by using sonicator and centrifuged at 4° C. and 1500×g for 30 minutes. The supernatant (soluble fraction) was subjected to the centrifugal separation at 4° C. and 40,000×g for 30 minutes, and thus, insoluble fraction was obtained. After additional centrifugally washing the obtained fraction with 20 mM HEPES buffer containing 10 mM EDTA (pH 7.4), the pellet was centrifugally suspended with a 20 mM HEPES buffer containing 0.1 mM EDTA, and the cell membrane fraction was obtained by the centrifugal separation at 4° C. and 40,000×g for 30 minutes. The thus obtained cell membrane fraction was suspended in a 20 mM HEPES buffer containing 0.1 mM EDTA in a protein concentration of 3 mg/mL, which was stored at −80° C.
([^35S]GTPγS binding assay)
The frozen cell membrane fraction prepared as described above was thawed before use, and the resultant was diluted with a buffer for a binding assay (final concentrations: 20 mM HEPES, 100 mM NaCl, 1 mM MgCl2, 3 μM GDP, 300 μg/mL saponin, 0.1% BSA). The compound of each example was added to a cell membrane fraction containing 1.8 to 3 μg/assay of membrane protein on a plate, followed by incubation at room temperature for 30 minutes. Thereafter, with glutamic acid (in a final concentration of 10 μM) added thereto, incubation was performed at room temperature for 15 minutes, and thereafter, [^35S]GTPγS (in a final concentration of 0.8 kBq) and 588 μg WGA-SPA beads were added thereto, followed by incubation at room temperature for 1 hour. After the incubation, the plate was subjected to the centrifugal separation at 2,500 rpm and room temperature, and then, membrane cell binding radioactivity was measured with a top count.
A [^35S]GTPγS binding amount obtained by performing the above-described reaction in the absence of glutamic acid was defined as nonspecific binding, and a difference from a [^35S]GTPγS binding amount obtained in the presence of glutamic acid was defined as specific binding. On the basis of ratios of inhibiting the specific binding at various concentrations of the compounds of the respective examples, inhibition curves were obtained. Concentrations of the compounds of the respective examples at which the specific [^35S]GTPγS binding amount was suppressed by 50% (IC50 values) were calculated on the basis of the inhibition curves and shown in Table 3.

Row | Structure (SMILES) | Minimum effective dose [1] | IC50 [2]
1 | CC(C)NS(=O)(=O)c1ccc(-c2nc(-c3ccc(F)cc3)n3c2CCO[C@H](C)C3)cc1 [Example 1, (R)-4-(3-(4-fluorophenyl)-6-methyl-5,6,8,9-tetrahydroimidazo[1,5-d][1,4]oxazepin-1-yl)-N-isopropylbenzenesulfonamide] | 1 mg/kg, p.o. | 3.7 nM
2 | COc1ccc(-c2nc(-c3ccc(S(=O)(=O)NC(C)C)cc3)c3n2C[C@@H](C)OCC3)cc1 [Example 8, (R)—N-isopropyl-4-(3-(4-methoxyphenyl)-6-methyl-5,6,8,9-tetrahydroimidazo[1,5-d][1,4]oxazepin-1-yl)benzenesulfonamide] | 3 mg/kg, p.o. | 3.1 nM
3 | CC(C)(C)NS(=O)(=O)c1ccc(-c2nc(-c3ccc(OCF)cc3)n3c2CCO[C@H](CF)C3)cc1 [Example 52] | – | 4.1 nM
4 | CC1Cn2c(-c3ccc(F)cc3)nc(-c3ccc(S(=O)(=O)NC4(C)CCC4)cc3)c2CCO1 (stereo not drawn) [Example 17] | – | 2.3 nM
5 | CCNS(=O)(=O)c1ccc(-c2nc(-c3ccc(OCF)cc3)n3c2CCO[C@H](CF)C3)cc1 [Example 56] | – | 10.7 nM
6 | C[C@@H]1Cn2c(-c3ccc(OCF)cc3)nc(-c3ccc(S(=O)(=O)NC4CC4)cc3)c2CCO1 [Example 18] | – | 3.6 nM
7 | C[C@@H]1Cn2c(-c3ccc(OC(F)F)c(F)c3)nc(-c3ccc(S(=O)(=O)NC(C)(C)C)cc3)c2CCO1 [Example 66] | – | 10.9 nM
8 | CCNS(=O)(=O)c1ccc(-c2nc(-c3ccc(OCF)cc3)n3c2CCO[C@H](C)C3)cc1 [Example 21] | – | 11.2 nM
9 | CC(C)(C)NS(=O)(=O)c1ccc(-c2nc(-c3ccc(F)cc3)n3c2CCO[C@H](CF)C3)cc1 [Example 41] | – | 2.1 nM
10 | CC(C)NS(=O)(=O)c1ccc(-c2nc(-c3ccc(F)cc3)n3c2CCO[C@H](CF)C3)cc1 [Example 40] | – | 2.6 nM
11 | COc1ccc(-c2nc(-c3ccc(S(=O)(=O)NC4CCC4)cc3)c3n2C[C@@H](C)OCC3)cc1 [Example 3, (R)—N-cyclobutyl-4-(3-(4-methoxyphenyl)-6-methyl-5,6,8,9-tetrahydroimidazo[1,5-d][1,4]oxazepin-1-yl)benzenesulfonamide] | 1 mg/kg, p.o. | 5 nM
12 | CC1(NS(=O)(=O)c2ccc(-c3nc(-c4ccc(OCF)cc4)n4c3CCO[C@H](CF)C4)cc2)CCC1 [Example 57] | – | 4.1 nM
13 | COc1ccc(-c2nc(-c3ccc(S(=O)(=O)NC(C)(C)C)cc3)c3n2C[C@@H](CF)OCC3)cc1 [Example 2, (S)—N-(tert-butyl)-4-(6-(fluoromethyl)-3-(4-methoxyphenyl)-5,6,8,9-tetrahydroimidazo[1,5-d][1,4]oxazepin-1-yl)benzenesulfonamide] | 3 mg/kg, p.o. | 3.1 nM
14 | CC1Cn2c(-c3ccc(OCF)cc3)nc(-c3ccc(S(=O)(=O)NC4(C)CCC4)cc3)c2CCO1 (stereo not drawn) [Example 22] | – | 3.1 nM
